{"source": "patent US7582068B2", "about": "“Occlusion resistant hydrocephalic shunt” (Medtronic, Inc., priority 2004, dated 2009)", "test_system": "tissue in-growth of the catheter lumen", "assay": "Tissue in-growth scoring of catheters explanted from rats after 3 months (SEM)", "format": "in vivo, rat", "conditions": "peritoneal and ventricular catheters in rats, MPA compared to drug-free control, dual drug compared to single drug loading", "description": "Micophenolic acid (MPA) was loaded into ventricular and peritoneal catheter, design of which is described in the example 16. MPA was loaded into ventricular catheter by solvent impregnation using 50 mg/ml MPA in THF followed by drug loading into a silicone plug with 10 wt % drug concentration. Peritoneal sample was loaded by solvent impregnation using 12.5 mg/ml MPA solution in THF followed by drug loading into a plug using 2.5 mg/ml MPA in silicone rubber. Samples were implanted into rat such that the ventricular sample was placed in a lateral ventricle of the rat and the peritoneal samples was implanted into rat peritoneal cavity. In total 6 ventricular and 6 peritoneal samples were implanted into 6 rats. 12 drug-free catheters of the same configuration were implanted in the other 6 rats as controls. After 3 months samples were explanted and the tissue in-growth was scored between 1 and 5 on a basis of SEM photographs of longitudinally split catheters. […]\nVentricular and peritoneal samples were loaded with RAPA and MPA according to the following procedure: catheters were impregnated with 50 mg/ml of MPA solution in THF followed by plugging with 5 wt % RAPA in silicone Samples were implanted in rats and analyzed as described in the Example 17."}
{"smiles": "COc1c(C)c2c(c(O)c1C/C=C(\\C)CCC(=O)O)C(=O)OC2", "note": "[MPA, Mycophenolic acid]", "values": [{"measurement": "Effect on tissue proliferation (in words)", "result": "decrease of tissue proliferation"}]}
